Values joined by “and” are separate entries in the source; they are usually repeats but may differ in a detail not shown here. Identical values can stand only once. Toxic doses and inconclusive results are not listed. How the source made its calls: active means survival T/C of 150% or more; inactive means T/C below 125% in these data.
System: P388 leukemia ip, CD2F1 mice, survival T/C
Assay: NCI In Vivo Anticancer Drug Screen. Data for tumor model P388 Leukemia (intraperitoneal) in CD2F1 (CDF1) mice
Settings: endpoint: median survival time, higher = longer survival
Summary of the method: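 Mice carrying the transplanted tumor received test compound or vehicle. Survival was recorded in each group, and the value is the treated-group measurement divided by that of the vehicle-treated control group.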

[1] = dose: 15.0 mg/kg/injection, schedule: Q01DX005 (ip), vehicle: saline with Tween-80
[2] = dose: 30.0 mg/kg/injection, schedule: Q01DX005 (ip), vehicle: saline with Tween-80
[3] = dose: 60.0 mg/kg/injection, schedule: Q01DX005 (ip), vehicle: saline with Tween-80
[4] = dose: 100.0 mg/kg/injection, schedule: Q01DX009 (ip), vehicle: saline with Tween-80
[5] = dose: 200.0 mg/kg/injection, schedule: Q01DX009 (ip), vehicle: saline with Tween-80
[6] = dose: 6.25 mg/kg/injection, schedule: Q01DX005 (ip), vehicle: Klucel (hydroxypropylcellulose) (HPC)
[7] = dose: 50.0 mg/kg/injection, schedule: Q01DX005 (ip), vehicle: saline
[8] = dose: 120.0 mg/kg/injection, schedule: Q01DX005 (ip), vehicle: saline with Tween-80
[9] = dose: 240.0 mg/kg/injection, schedule: Q01DX005 (ip), vehicle: saline with Tween-80
[10] = dose: 12.5 mg/kg/injection, schedule: Q01DX005 (ip), vehicle: Klucel (hydroxypropylcellulose) (HPC)
[11] = dose: 25.0 mg/kg/injection, schedule: Q01DX005 (ip), vehicle: Klucel (hydroxypropylcellulose) (HPC)
[12] = dose: 50.0 mg/kg/injection, schedule: Q01DX009 (ip), vehicle: saline with Tween-80
[13] = dose: 50.0 mg/kg/injection, schedule: Q01DX005 (ip), vehicle: saline with Tween-80
[14] = dose: 100.0 mg/kg/injection, schedule: Q01DX005 (ip), vehicle: saline with Tween-80

Measured: T/C

c1ccc2c(c1)c1ccccc1c1n[se]nc21
inactive: [1] 90 % of control | [2] 90 % of control | [3] 98 % of control

O=C(/C=C(\NC1CCCCC1)C(=O)c1ccccc1)c1ccccc1
inactive: [4] 90 % of control | [5] 90 % of control | dose: 400.0 mg/kg/injection, schedule: Q01DX009 (ip), vehicle: saline with Tween-80 100 % of control

CC(=O)OC1CCC2(C)C3CCC4(C)C(=CCC5(C(=O)O)CCC(C)(C)CC45)C3(C)CCC2C1(C)C (centres undefined)
inactive: dose: 0.25 mg/kg/injection, schedule: Q01DX009 (ip), vehicle: saline + Tween-80 + alcohol 97 % of control | dose: 0.5 mg/kg/injection, schedule: Q01DX009 (ip), vehicle: saline + Tween-80 + alcohol 101 % of control | dose: 1.0 mg/kg/injection, schedule: Q01DX009 (ip), vehicle: saline + Tween-80 + alcohol 106 % of control | dose: 2.0 mg/kg/injection, schedule: Q01DX009 (ip), vehicle: saline + Tween-80 + alcohol 97 % of control | dose: 4.0 mg/kg/injection, schedule: Q01DX009 (ip), vehicle: saline + Tween-80 + alcohol 106 % of control

C/C=C(\C)C(=O)OC1CCC2(C)C3CCC4C5(O)CC(O)C6(O)C(CN7CC(C)CCC7C6(C)O)C5(O)CC42OC13O (centres undefined)
inactive: dose: 1.56 mg/kg/injection, schedule: Q01DX005 (ip), vehicle: Klucel (hydroxypropylcellulose) (HPC) 98 % of control | dose: 1.56 mg/kg/injection, schedule: Q01DX005 (ip), vehicle: saline 96 % of control | dose: 3.12 mg/kg/injection, schedule: Q01DX005 (ip), vehicle: Klucel (hydroxypropylcellulose) (HPC) 106 % of control | dose: 3.12 mg/kg/injection, schedule: Q01DX005 (ip), vehicle: saline 96 % of control | [6] 109 % of control and 91 % of control | dose: 6.25 mg/kg/injection, schedule: Q01DX005 (ip), vehicle: saline 96 % of control

CN(C)C(=O)CC(O)c1ccccc1 (centres undefined)
inactive: [7] 102 % of control | dose: 100.0 mg/kg/injection, schedule: Q01DX005 (ip), vehicle: saline 105 % of control | dose: 200.0 mg/kg/injection, schedule: Q01DX005 (ip), vehicle: saline 100 % of control

COc1ccccc1C1CC(c2ccccc2)=Nc2ccccc2S1 (centres undefined)
inactive: dose: 50.0 mg/kg/injection, schedule: Q01DX009 (ip), vehicle: Klucel (hydroxypropylcellulose) (HPC) 96 % of control | dose: 100.0 mg/kg/injection, schedule: Q01DX009 (ip), vehicle: Klucel (hydroxypropylcellulose) (HPC) 100 % of control | dose: 200.0 mg/kg/injection, schedule: Q01DX009 (ip), vehicle: Klucel (hydroxypropylcellulose) (HPC) 101 % of control

Nc1nccc(CC(O)(c2ccccc2)c2ccccc2)n1
inactive: [1] 102 % of control | [2] 102 % of control | [3] 99 % of control and 100 % of control | [8] 95 % of control | [9] 87 % of control

CC(C)(C)[Si]1(C(C)(C)C)N([Si](C)(C)C)N1[Si](C)(C)C (centres undefined)
inactive: dose: 60.0 mg/kg/injection, schedule: Q01DX005 (ip), vehicle: saline 106 % of control | dose: 120.0 mg/kg/injection, schedule: Q01DX005 (ip), vehicle: saline 100 % of control | dose: 240.0 mg/kg/injection, schedule: Q01DX005 (ip), vehicle: saline 105 % of control

CN(C)CCCCCC[N+](C)(C)Cc1ccc(C[N+](C)(C)CCCCCC[N+](C)(C)Cc2ccc(CCl)cc2)cc1
inactive: dose: 3.12 mg/kg/injection, schedule: Q04DX003 (ip), vehicle: saline 108 % of control | dose: 6.25 mg/kg/injection, schedule: Q04DX003 (ip), vehicle: saline 106 % of control | dose: 12.5 mg/kg/injection, schedule: Q04DX003 (ip), vehicle: saline 97 % of control

Cc1nc2[nH]cc(-c3ccccc3)c2c(=N)n1-c1ccccc1
inactive: [10] 102 % of control | [11] 106 % of control | dose: 50.0 mg/kg/injection, schedule: Q01DX005 (ip), vehicle: Klucel (hydroxypropylcellulose) (HPC) 100 % of control and 104 % of control

Cc1ccc(C)c2c1-c1ccccc1S2(=O)=O
inactive: dose: 25.0 mg/kg/injection, schedule: Q01DX009 (ip), vehicle: saline with Tween-80 110 % of control | [12] 111 % of control | [4] 109 % of control | [5] 102 % of control

COc1ccc(C2=CC3CCC(C2)N3C)cc1 (centres undefined)
inactive: [6] 96 % of control | [10] 110 % of control | dose: 12.5 mg/kg/injection, schedule: Q01DX005 (ip), vehicle: saline 102 % of control | [11] 110 % of control and 113 % of control | dose: 25.0 mg/kg/injection, schedule: Q01DX005 (ip), vehicle: saline 98 % of control | [7] 94 % of control

N=C(N)c1ccc2oc(/C=C/C=C/C=C/c3cc4cc(C(=N)N)ccc4o3)cc2c1
inactive: dose: 100.0 mg/kg/injection, schedule: Q04DX003 (ip), vehicle: saline 124 % of control

OCc1ccccc1
inactive: dose: 0.12 % in 0.5 ml injection vol, schedule: Q01DX009 (ip), vehicle: water 94 % of control | dose: 0.25 % in 0.5 ml injection vol, schedule: Q01DX009 (ip), vehicle: water 94 % of control | dose: 0.5 % in 0.5 ml injection vol, schedule: Q01DX009 (ip), vehicle: water 100 % of control and 103 % of control | dose: 1.0 % in 0.5 ml injection vol, schedule: Q01DX009 (ip), vehicle: water 95 % of control and 98 % of control | dose: 2.0 % in 0.5 ml injection vol, schedule: Q01DX009 (ip), vehicle: water 98 % of control

COc1ccc2c(C)c(N=C=S)c(=O)oc2c1
inactive: dose: 50.0 mg/kg/injection, schedule: Q04DX003 (ip), vehicle: suspension in saline 100 % of control | dose: 100.0 mg/kg/injection, schedule: Q04DX003 (ip), vehicle: suspension in saline 100 % of control | dose: 200.0 mg/kg/injection, schedule: Q04DX003 (ip), vehicle: suspension in saline 106 % of control

CN1CCC2c3c([nH]c4ccccc34)C(C)(C)OC2C1 (centres undefined)
inactive: [3] 111 % of control | [8] 113 % of control | [9] 118 % of control

COc1ccccc1C1OC2=C(Nc3ccc(Cl)cc3N2)C1=O (centres undefined)
inactive: dose: 7.5 mg/kg/injection, schedule: Q01DX005 (ip), vehicle: Klucel (hydroxypropylcellulose) (HPC) 100 % of control | dose: 15.0 mg/kg/injection, schedule: Q01DX005 (ip), vehicle: Klucel (hydroxypropylcellulose) (HPC) 93 % of control | dose: 30.0 mg/kg/injection, schedule: Q01DX005 (ip), vehicle: Klucel (hydroxypropylcellulose) (HPC) 87 % of control

C/C=C(\C)N=NNc1ccccc1
inactive: dose: 100.0 mg/kg/injection, schedule: Q04DX003 (ip), vehicle: saline + Tween-80 + alcohol 114 % of control | dose: 200.0 mg/kg/injection, schedule: Q04DX003 (ip), vehicle: saline + Tween-80 + alcohol 114 % of control

Cc1ccc2[nH]c(=O)oc2c1
inactive: dose: 25.0 mg/kg/injection, schedule: Q04DX002 (ip), vehicle: saline with Tween-80 90 % of control | dose: 50.0 mg/kg/injection, schedule: Q04DX002 (ip), vehicle: saline with Tween-80 101 % of control

C[C@@H]1CCC[C@H]1CC(N)C(=O)O (some centres undefined)
inactive: [13] 99 % of control | [14] 95 % of control | dose: 200.0 mg/kg/injection, schedule: Q01DX005 (ip), vehicle: saline with Tween-80 91 % of control

CSC(=S)N/N=C(/C)c1ccco1
inactive: [12] 105 % of control | [4] 95 % of control

O=C(N/N=C\c1ccc(O)cc1)C(=O)N/N=C\c1ccc(O)cc1
inactive: dose: 50.0 mg/kg/injection, schedule: Q01DX009 (ip), vehicle: saline 87 % of control | dose: 100.0 mg/kg/injection, schedule: Q01DX009 (ip), vehicle: saline 92 % of control | dose: 200.0 mg/kg/injection, schedule: Q01DX009 (ip), vehicle: saline 96 % of control

CCCCCCc1cc(-c2cc(CCCCCC)[nH]n2)n[nH]1
inactive: dose: 60.0 mg/kg/injection, schedule: Q01DX005 (ip), vehicle: Klucel (hydroxypropylcellulose) (HPC) 100 % of control | dose: 120.0 mg/kg/injection, schedule: Q01DX005 (ip), vehicle: Klucel (hydroxypropylcellulose) (HPC) 98 % of control | dose: 240.0 mg/kg/injection, schedule: Q01DX005 (ip), vehicle: Klucel (hydroxypropylcellulose) (HPC) 95 % of control

COc1cc(NC(=O)c2ccc(NC(=O)c3ccc(N)cc3)cc2)c(OC)cc1N=Nc1cc(C)c(N=Nc2cc(S(=O)(=O)O)c3cccc(S(=O)(=O)O)c3c2)cc1C
inactive: [13] 100 % of control | [14] 94 % of control

Source: PubChem BioAssay AID330 (DTP/NCI, 2004)
